The source of these data is patent publication US4725683A, “Fluorophenoxyphenoxypropionates and derivatives thereof” (The Dow Chemical Company, priority 1985, dated 1988).

Molecules are shown by their SMILES.

Holding throughout (assay): Preemergent activity
Assay type in all cases: in vivo

For one assay, the system named is Barnyard Grass. Particulars: Echinochloa crus-galli, pre-emergence, read-out: Preemergence Control; for pest or weed control at 140 g/ha: 0.14 kgs/hectare; for pest or weed control at 1120 g/ha: 1.12 kgs/hectare; for pest or weed control at 560 g/ha: 0.56 kgs/hectare; for pest or weed control at 280 g/ha: 0.28 kgs/hectare. The protocol:
(§1) In a representative operation, 2-[4-(2-fluoro-4-trifluoromethylphenoxy)phenoxy]propionic acid methyl ester, to be utilized in a series of tests, is dissolved in acetone to one half of the final volume (twice the final concentration) to be used and the acetone solution in each case is admixed with an equal volume of water containing 0.1 percent by weight of Tween-20 surface active material (Tween-20 is a trademark of Atlas Chemical Company). The composition, generally in the nature of an emulsion, was employed to treat separate respective seed beds of sandy loam soil of good nutrient content wherein each seed bed contained separate groups of good viable seeds, each group being of one of a known plant species. The various beds were positioned side by side and exposed to substantially identical conditions of temperature and light. Each bed was maintained so as to prevent any interaction with the test compound in different seed beds. Each seed bed was treated with the composition as a spray employing conventional spraying equipment to deposit a predetermined amount of the compound uniformly throughout the surface of the bed. Another seed bed was treated only with the acetone-Tween-20 water mixture with no chemical added to serve as a control.

The subject of a further assay is Johnson Grass. The settings on record: Sorghum halepense, pre-emergence, read-out: Preemergence Control; for pest or weed control at 140 g/ha: 0.14 kgs/hectare; for pest or weed control at 1120 g/ha: 1.12 kgs/hectare; for pest or weed control at 560 g/ha: 0.56 kgs/hectare; for pest or weed control at 280 g/ha: 0.28 kgs/hectare. The method, then: as §1
The next assay relates to Wheat. The settings on record: Triticum aestivum, pre-emergence, read-out: Preemergence Control; for plant injury at 70 g/ha: 0.07 kgs/hectare; for plant injury at 140 g/ha: 0.14 kgs/hectare; for plant injury at 280 g/ha: 0.28 kgs/hectare; for plant injury at 560 g/ha: 0.56 kgs/hectare; for plant injury at 1120 g/ha: 1.12 kgs/hectare. The protocol:
as §1

Another assay deals with Wild Oats. Particulars: Avena fatua, pre-emergence, read-out: Preemergence Control; for pest or weed control at 140 g/ha: 0.14 kgs/hectare; for pest or weed control at 1120 g/ha: 1.12 kgs/hectare; for pest or weed control at 560 g/ha: 0.56 kgs/hectare; for pest or weed control at 280 g/ha: 0.28 kgs/hectare. The method, then:
as §1

In another assay the test system is Yellow Foxtail. The settings on record: Setaria, pre-emergence, read-out: Preemergence Control; for pest or weed control at 140 g/ha: 0.14 kgs/hectare; for pest or weed control at 1120 g/ha: 1.12 kgs/hectare; for pest or weed control at 560 g/ha: 0.56 kgs/hectare; for pest or weed control at 280 g/ha: 0.28 kgs/hectare. The protocol: as §1

`CC(Oc1ccc(Oc2ccc(Br)cc2F)cc1)C(=O)Nc1ccc(C(F)(F)F)cc1` (centres unmarked): in the assay with Barnyard Grass, the pest or weed control at 140 g/ha was determined as 0% and the pest or weed control at 1120 g/ha came to 50%. In addition, in the assay with Johnson Grass, the pest or weed control at 140 g/ha is 0% and the pest or weed control at 1120 g/ha was 20%. In the assay on Wheat, the plant injury at 70 g/ha was found to be 0%, the plant injury at 140 g/ha was determined as 0%, the plant injury at 280 g/ha was 0% and the plant injury at 560 g/ha was 0%. The plant injury at 1120 g/ha in the assay with Wheat came out at 0%. Further, in the assay on Wild Oats, the pest or weed control at 140 g/ha worked out at 0% and the pest or weed control at 1120 g/ha is 60%. Further, in the assay on Yellow Foxtail, the pest or weed control at 140 g/ha came out at 0% and the pest or weed control at 1120 g/ha stood at 0%.
Regarding `Cc1cc(Cl)ccc1NC(=O)C(C)Oc1ccc(Oc2ccc(Br)cc2F)cc1` (centres unmarked), in the assay on Barnyard Grass, the pest or weed control at 140 g/ha turned out to be 0%, the pest or weed control at 560 g/ha came to 0% and the pest or weed control at 1120 g/ha was determined as 100%. In addition, in the assay with Johnson Grass, the pest or weed control at 140 g/ha worked out at 0%, the pest or weed control at 560 g/ha was 0% and the pest or weed control at 1120 g/ha turned out to be 60%. Further, in the assay with Wheat, the plant injury at 70 g/ha was 0%, the plant injury at 140 g/ha amounted to 0%, the plant injury at 280 g/ha stood at 0% and the plant injury at 560 g/ha amounted to 0%. In addition, the plant injury at 1120 g/ha in the assay on Wheat turned out to be 40%. In the assay with Wild Oats, the pest or weed control at 140 g/ha turned out to be 0%, the pest or weed control at 560 g/ha turned out to be 0% and the pest or weed control at 1120 g/ha was 90%. Also, in the assay on Yellow Foxtail, the pest or weed control at 140 g/ha amounted to 0%, the pest or weed control at 560 g/ha was determined as 70% and the pest or weed control at 1120 g/ha worked out at 100%.
In the case of `COc1cccc(NC(=O)C(C)Oc2ccc(Oc3ccc(Br)cc3F)cc2)c1` (centres unmarked), in the assay on Barnyard Grass, the pest or weed control at 140 g/ha was 0%, the pest or weed control at 280 g/ha came to 100%, the pest or weed control at 560 g/ha was 100% and the pest or weed control at 1120 g/ha was determined as 100%. For the same compound, in the assay with Johnson Grass, the pest or weed control at 140 g/ha turned out to be 0%, the pest or weed control at 280 g/ha was 30%, the pest or weed control at 560 g/ha amounted to 30% and the pest or weed control at 1120 g/ha was determined as 100%. Besides, in the assay on Wheat, the plant injury at 70 g/ha was 0%, the plant injury at 140 g/ha was 0%, the plant injury at 280 g/ha was determined as 0% and the plant injury at 560 g/ha stood at 0%. In the assay with Wheat, the plant injury at 1120 g/ha was determined as 0%. In the assay with Wild Oats, the pest or weed control at 140 g/ha was found to be 0%, the pest or weed control at 280 g/ha stood at 0%, the pest or weed control at 560 g/ha is 40% and the pest or weed control at 1120 g/ha is 30%. Further, in the assay on Yellow Foxtail, the pest or weed control at 140 g/ha is 0%, the pest or weed control at 280 g/ha turned out to be 20%, the pest or weed control at 560 g/ha is 80% and the pest or weed control at 1120 g/ha was found to be 100%.
Take `CC(Oc1ccc(Oc2ccc(Br)cc2F)cc1)C(=O)OC1CCCC1` (centres unmarked): in the assay on Barnyard Grass, the pest or weed control at 140 g/ha is 50%, the pest or weed control at 280 g/ha came to 100%, the pest or weed control at 560 g/ha is 100% and the pest or weed control at 1120 g/ha was found to be 100%. Further, in the assay with Johnson Grass, the pest or weed control at 140 g/ha was 0%, the pest or weed control at 280 g/ha amounted to 40%, the pest or weed control at 560 g/ha worked out at 100% and the pest or weed control at 1120 g/ha stood at 100%. For the same compound, in the assay with Wheat, the plant injury at 70 g/ha came out at 0%, the plant injury at 140 g/ha was 0%, the plant injury at 280 g/ha worked out at 0% and the plant injury at 560 g/ha came to 0%. For the same compound, in the assay on Wheat, the plant injury at 1120 g/ha was found to be 80%. In the assay on Wild Oats, the pest or weed control at 140 g/ha turned out to be 0%, the pest or weed control at 280 g/ha came out at 30%, the pest or weed control at 560 g/ha came to 100% and the pest or weed control at 1120 g/ha was 100%. For the same compound, in the assay with Yellow Foxtail, the pest or weed control at 140 g/ha came to 0%, the pest or weed control at 280 g/ha was 100%, the pest or weed control at 560 g/ha was 100% and the pest or weed control at 1120 g/ha stood at 100%.
On to `CC(Oc1ccc(Oc2ccc(Br)cc2F)cc1)C(=O)N(C)c1ccccc1` (centres unmarked), for which, in the assay on Barnyard Grass, the pest or weed control at 140 g/ha came out at 0% and the pest or weed control at 1120 g/ha was determined as 0%. In the assay on Johnson Grass, the pest or weed control at 140 g/ha was found to be 0% and the pest or weed control at 1120 g/ha stood at 0%. Also, in the assay with Wheat, the plant injury at 70 g/ha stood at 0%, the plant injury at 140 g/ha was 0%, the plant injury at 280 g/ha came to 0% and the plant injury at 560 g/ha is 0%. Also, the plant injury at 1120 g/ha with Wheat stood at 0%. Moreover, in the assay on Wild Oats, the pest or weed control at 140 g/ha came out at 0% and the pest or weed control at 1120 g/ha was 0%. Besides, in the assay on Yellow Foxtail, the pest or weed control at 140 g/ha was 0% and the pest or weed control at 1120 g/ha turned out to be 0%.
On to `C=CCNC(=O)C(C)Oc1ccc(Oc2ccc(Br)cc2F)cc1` (centres unmarked), for which, in the assay on Barnyard Grass, the pest or weed control at 140 g/ha was determined as 0%, the pest or weed control at 280 g/ha came to 100%, the pest or weed control at 560 g/ha stood at 100% and the pest or weed control at 1120 g/ha stood at 100%. Besides, in the assay with Johnson Grass, the pest or weed control at 140 g/ha was found to be 0%, the pest or weed control at 280 g/ha was determined as 50%, the pest or weed control at 560 g/ha is 90% and the pest or weed control at 1120 g/ha is 100%. In addition, in the assay with Wheat, the plant injury at 70 g/ha came out at 0%, the plant injury at 140 g/ha turned out to be 0%, the plant injury at 280 g/ha worked out at 0% and the plant injury at 560 g/ha was found to be 0%. Besides, the plant injury at 1120 g/ha with Wheat amounted to 0%. Besides, in the assay with Wild Oats, the pest or weed control at 140 g/ha turned out to be 80%, the pest or weed control at 280 g/ha was 90%, the pest or weed control at 560 g/ha was 80% and the pest or weed control at 1120 g/ha worked out at 90%. Besides, in the assay on Yellow Foxtail, the pest or weed control at 140 g/ha turned out to be 0%, the pest or weed control at 280 g/ha is 30%, the pest or weed control at 560 g/ha was found to be 90% and the pest or weed control at 1120 g/ha worked out at 100%.
For the compound `CC(Oc1ccc(Oc2ccc(Br)cc2F)cc1)C(N)=O` (centres unmarked) [NH2, 2-(4-(4-Bromo-2-fluorophenoxy)phenoxy)propionamide], the pest or weed control at 70 g/ha in the assay with Barnyard Grass (0.07 kgs/hectare) is 20%. Also, in the assay on Barnyard Grass, the pest or weed control at 140 g/ha is 100%, the pest or weed control at 280 g/ha was 100%, the pest or weed control at 560 g/ha was 100% and the pest or weed control at 1120 g/ha was determined as 100%. Moreover, the pest or weed control at 70 g/ha with Johnson Grass (0.07 kgs/hectare) worked out at 0%. Further, in the assay with Johnson Grass, the pest or weed control at 140 g/ha amounted to 0%, the pest or weed control at 280 g/ha was 30%, the pest or weed control at 560 g/ha worked out at 90% and the pest or weed control at 1120 g/ha worked out at 100%. Moreover, in the assay on Wheat, the plant injury at 70 g/ha stood at 0%, the plant injury at 140 g/ha was determined as 0%, the plant injury at 280 g/ha is 30% and the plant injury at 560 g/ha came to 90%. In addition, in the assay with Wheat, the plant injury at 1120 g/ha is 40%. The pest or weed control at 70 g/ha in the assay with Wild Oats (0.07 kgs/hectare) was 0%. In addition, in the assay with Wild Oats, the pest or weed control at 140 g/ha stood at 0%, the pest or weed control at 280 g/ha came out at 50%, the pest or weed control at 560 g/ha amounted to 50% and the pest or weed control at 1120 g/ha was found to be 95%. The pest or weed control at 70 g/ha with Yellow Foxtail (0.07 kgs/hectare) worked out at 0%. Also, in the assay on Yellow Foxtail, the pest or weed control at 140 g/ha worked out at 90%, the pest or weed control at 280 g/ha was 95%, the pest or weed control at 560 g/ha was 100% and the pest or weed control at 1120 g/ha amounted to 100%.
